# Experimental data published in ChEMBL document CHEMBL5291721, “A preclinical secondary pharmacology resource illuminates target-adverse drug reaction associations of marketed drugs” (Nat Commun, 2023).
# Tests used:
# [1] = molecular target: Prothrombin (Homo sapiens, UniProt P00734); type: functional
# [2] = molecular target: T1, Muscarinic acetylcholine receptor M2 (Homo sapiens, UniProt P08172)
# T1 sequence (P08172 whole entry): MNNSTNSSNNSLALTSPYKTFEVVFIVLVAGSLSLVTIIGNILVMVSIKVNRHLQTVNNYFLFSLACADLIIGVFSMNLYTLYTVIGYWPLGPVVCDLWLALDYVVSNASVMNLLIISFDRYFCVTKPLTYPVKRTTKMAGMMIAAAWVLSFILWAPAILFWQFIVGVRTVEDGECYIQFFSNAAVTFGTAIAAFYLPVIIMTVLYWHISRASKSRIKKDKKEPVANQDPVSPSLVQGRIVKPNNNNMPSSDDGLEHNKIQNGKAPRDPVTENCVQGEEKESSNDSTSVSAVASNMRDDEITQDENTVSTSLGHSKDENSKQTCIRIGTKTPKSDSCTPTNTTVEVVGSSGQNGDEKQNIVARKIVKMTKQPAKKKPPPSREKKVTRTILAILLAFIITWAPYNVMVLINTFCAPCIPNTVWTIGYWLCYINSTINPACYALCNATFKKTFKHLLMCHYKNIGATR
# [3] = molecular target: 5-hydroxytryptamine receptor 2B (Homo sapiens, UniProt P41595); type: functional, cell-based
# Chain of 5-hydroxytryptamine receptor 2B (P41595 whole entry): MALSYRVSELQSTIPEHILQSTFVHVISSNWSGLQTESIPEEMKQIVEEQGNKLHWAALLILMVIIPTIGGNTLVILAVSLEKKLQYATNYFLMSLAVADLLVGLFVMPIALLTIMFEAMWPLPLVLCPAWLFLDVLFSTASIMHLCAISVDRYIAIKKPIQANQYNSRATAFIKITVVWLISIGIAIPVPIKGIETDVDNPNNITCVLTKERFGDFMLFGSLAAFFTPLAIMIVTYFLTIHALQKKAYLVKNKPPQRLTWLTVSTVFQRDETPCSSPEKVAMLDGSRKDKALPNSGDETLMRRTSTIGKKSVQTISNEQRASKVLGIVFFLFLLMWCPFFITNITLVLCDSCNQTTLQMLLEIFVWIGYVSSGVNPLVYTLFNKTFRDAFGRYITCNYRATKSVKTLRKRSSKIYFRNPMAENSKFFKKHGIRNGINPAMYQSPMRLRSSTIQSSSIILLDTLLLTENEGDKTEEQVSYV
# [4] = molecular target: Voltage-gated inwardly rectifying potassium channel KCNH2 (Homo sapiens, UniProt Q12809); type: functional; details: read-out: AC50
# Chain of Voltage-gated inwardly rectifying potassium channel KCNH2 (Q12809 whole entry): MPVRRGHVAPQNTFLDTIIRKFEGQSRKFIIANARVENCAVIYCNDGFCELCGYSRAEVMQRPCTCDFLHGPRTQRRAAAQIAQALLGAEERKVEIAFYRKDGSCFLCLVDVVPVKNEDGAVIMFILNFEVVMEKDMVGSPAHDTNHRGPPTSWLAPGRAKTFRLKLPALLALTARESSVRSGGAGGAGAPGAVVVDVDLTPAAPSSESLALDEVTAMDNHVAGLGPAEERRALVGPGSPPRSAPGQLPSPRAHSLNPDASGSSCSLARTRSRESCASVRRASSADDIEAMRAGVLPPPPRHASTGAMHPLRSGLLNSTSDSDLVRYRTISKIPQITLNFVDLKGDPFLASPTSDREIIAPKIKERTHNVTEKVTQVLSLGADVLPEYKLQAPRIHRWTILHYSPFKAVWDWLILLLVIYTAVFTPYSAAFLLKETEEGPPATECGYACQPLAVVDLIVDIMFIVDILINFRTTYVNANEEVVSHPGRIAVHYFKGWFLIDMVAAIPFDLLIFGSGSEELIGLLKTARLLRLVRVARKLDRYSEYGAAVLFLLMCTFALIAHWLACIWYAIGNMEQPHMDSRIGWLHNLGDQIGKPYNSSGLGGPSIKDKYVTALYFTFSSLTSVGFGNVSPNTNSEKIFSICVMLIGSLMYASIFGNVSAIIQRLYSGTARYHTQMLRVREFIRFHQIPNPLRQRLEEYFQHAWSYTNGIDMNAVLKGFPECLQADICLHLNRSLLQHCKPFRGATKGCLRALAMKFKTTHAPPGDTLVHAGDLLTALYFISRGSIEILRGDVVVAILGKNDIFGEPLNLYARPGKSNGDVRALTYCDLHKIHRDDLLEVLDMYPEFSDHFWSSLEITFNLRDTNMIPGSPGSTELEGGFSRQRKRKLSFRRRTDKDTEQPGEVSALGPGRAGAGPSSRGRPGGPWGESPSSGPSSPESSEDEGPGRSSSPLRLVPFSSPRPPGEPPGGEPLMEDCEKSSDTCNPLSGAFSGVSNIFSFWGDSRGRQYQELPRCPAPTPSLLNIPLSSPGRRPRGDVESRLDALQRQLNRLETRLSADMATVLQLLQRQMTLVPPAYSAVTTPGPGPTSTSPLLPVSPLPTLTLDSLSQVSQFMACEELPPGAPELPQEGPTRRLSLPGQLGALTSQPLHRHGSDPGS
# [5] = molecular target: 3',5'-cyclic-AMP phosphodiesterase 4A (Homo sapiens, UniProt P27815); type: functional
# Chain of 3',5'-cyclic-AMP phosphodiesterase 4A (P27815 whole entry): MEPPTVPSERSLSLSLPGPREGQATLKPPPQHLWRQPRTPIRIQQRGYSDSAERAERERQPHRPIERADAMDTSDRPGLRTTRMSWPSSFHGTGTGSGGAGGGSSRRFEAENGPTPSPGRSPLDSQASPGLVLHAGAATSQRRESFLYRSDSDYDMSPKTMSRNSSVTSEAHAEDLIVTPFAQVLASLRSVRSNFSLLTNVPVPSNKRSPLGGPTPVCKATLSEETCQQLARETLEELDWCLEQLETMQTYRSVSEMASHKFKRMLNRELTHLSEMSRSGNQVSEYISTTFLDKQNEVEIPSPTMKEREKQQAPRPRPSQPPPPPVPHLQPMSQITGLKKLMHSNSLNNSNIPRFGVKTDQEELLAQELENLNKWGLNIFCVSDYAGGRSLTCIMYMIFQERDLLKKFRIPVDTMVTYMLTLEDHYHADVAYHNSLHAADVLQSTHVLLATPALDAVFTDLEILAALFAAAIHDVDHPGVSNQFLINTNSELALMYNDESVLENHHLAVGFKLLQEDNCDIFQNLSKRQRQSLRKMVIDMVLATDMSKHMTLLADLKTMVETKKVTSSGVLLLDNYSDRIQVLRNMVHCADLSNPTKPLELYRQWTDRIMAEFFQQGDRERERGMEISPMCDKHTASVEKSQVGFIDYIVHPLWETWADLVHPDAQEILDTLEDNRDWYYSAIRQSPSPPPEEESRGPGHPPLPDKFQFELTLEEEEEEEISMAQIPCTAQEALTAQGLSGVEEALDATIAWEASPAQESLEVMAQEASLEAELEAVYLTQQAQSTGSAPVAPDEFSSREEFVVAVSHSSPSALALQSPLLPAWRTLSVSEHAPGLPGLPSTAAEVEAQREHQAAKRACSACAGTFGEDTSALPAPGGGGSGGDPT
# [6] = molecular target: T2, 5-hydroxytryptamine receptor 1A (Homo sapiens, UniProt P08908)
# T2 sequence (P08908 whole entry): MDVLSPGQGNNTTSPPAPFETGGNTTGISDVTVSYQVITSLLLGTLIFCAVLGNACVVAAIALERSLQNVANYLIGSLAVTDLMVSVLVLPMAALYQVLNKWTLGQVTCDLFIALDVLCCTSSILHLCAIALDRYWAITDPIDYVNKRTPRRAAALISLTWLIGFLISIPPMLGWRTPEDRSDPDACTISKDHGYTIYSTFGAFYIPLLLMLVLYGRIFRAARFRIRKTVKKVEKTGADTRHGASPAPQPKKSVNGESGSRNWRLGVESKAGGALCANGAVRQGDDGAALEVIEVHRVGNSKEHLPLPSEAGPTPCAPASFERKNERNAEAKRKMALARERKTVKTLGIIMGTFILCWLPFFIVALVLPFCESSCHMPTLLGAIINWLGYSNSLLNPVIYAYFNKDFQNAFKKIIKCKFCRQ
# [7] = molecular target: T3, Amine oxidase [flavin-containing] A (Homo sapiens, UniProt P21397); type: functional
# T3 sequence (P21397 whole entry): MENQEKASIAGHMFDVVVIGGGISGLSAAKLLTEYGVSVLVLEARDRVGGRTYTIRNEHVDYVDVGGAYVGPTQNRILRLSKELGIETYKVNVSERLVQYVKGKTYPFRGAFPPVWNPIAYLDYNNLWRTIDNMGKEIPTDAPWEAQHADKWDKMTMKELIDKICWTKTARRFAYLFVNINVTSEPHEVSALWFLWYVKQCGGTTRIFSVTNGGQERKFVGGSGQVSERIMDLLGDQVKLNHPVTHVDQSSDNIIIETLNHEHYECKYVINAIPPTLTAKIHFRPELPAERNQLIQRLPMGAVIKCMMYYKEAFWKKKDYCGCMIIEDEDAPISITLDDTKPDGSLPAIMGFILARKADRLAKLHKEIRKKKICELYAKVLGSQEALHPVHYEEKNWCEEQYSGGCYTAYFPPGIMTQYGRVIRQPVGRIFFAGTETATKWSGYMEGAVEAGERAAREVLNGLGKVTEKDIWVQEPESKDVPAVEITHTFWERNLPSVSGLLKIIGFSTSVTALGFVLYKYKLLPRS
# [8] = molecular target: T4, Progesterone receptor (Homo sapiens, UniProt P06401)
# T4 sequence (P06401 whole entry): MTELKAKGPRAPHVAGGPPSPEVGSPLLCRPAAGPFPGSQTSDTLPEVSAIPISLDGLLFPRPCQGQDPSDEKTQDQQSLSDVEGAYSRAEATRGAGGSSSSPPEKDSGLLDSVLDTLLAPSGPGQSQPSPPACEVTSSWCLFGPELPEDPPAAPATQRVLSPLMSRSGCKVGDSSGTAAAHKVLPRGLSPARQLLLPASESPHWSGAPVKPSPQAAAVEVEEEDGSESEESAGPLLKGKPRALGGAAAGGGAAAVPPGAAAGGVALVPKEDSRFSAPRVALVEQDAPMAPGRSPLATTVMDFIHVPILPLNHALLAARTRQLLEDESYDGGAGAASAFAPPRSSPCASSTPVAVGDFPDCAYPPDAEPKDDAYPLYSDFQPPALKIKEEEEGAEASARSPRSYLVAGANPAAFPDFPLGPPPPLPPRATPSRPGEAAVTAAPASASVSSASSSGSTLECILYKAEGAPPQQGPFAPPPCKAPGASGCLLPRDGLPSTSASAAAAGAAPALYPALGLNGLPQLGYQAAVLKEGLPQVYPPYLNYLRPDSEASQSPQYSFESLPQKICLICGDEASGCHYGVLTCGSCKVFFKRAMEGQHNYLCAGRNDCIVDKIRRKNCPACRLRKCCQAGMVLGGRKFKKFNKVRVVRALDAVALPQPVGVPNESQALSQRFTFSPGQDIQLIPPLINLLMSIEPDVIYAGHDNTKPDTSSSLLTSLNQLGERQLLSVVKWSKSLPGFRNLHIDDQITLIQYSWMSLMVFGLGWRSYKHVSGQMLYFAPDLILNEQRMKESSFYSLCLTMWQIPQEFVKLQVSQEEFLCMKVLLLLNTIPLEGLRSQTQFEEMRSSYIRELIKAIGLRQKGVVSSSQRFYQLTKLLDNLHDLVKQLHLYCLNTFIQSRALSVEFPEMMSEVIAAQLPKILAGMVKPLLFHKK
# [9] = molecular target: Sodium-dependent dopamine transporter (Homo sapiens, UniProt Q01959)
# Chain of Sodium-dependent dopamine transporter (Q01959 whole entry): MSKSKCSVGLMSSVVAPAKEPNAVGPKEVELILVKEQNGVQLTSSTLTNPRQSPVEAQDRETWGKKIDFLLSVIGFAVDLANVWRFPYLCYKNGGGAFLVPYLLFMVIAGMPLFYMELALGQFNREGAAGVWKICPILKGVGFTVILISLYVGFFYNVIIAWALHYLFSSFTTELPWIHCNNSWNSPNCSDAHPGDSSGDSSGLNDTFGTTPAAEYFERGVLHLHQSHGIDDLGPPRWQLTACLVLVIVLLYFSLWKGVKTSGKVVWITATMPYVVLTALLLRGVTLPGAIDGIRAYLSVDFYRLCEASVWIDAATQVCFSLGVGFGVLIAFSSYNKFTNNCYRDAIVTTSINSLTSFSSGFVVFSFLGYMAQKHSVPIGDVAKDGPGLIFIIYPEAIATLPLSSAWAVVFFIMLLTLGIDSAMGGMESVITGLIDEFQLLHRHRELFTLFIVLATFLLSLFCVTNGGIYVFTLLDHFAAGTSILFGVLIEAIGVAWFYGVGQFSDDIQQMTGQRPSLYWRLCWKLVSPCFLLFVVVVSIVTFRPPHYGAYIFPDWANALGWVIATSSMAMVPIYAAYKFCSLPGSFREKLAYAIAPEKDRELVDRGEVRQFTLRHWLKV
# Note: assay procedure not described here.
structure (smiles),measurement,setting,value
C[C@H]1O[C@@H](O[C@H]2[C@@H](O)C[C@H](O[C@H]3[C@@H](O)C[C@H](O[C@H]4CC[C@@]5(C)[C@H](CC[C@@H]6[C@@H]5CC[C@]5(C)[C@@H](C7=CC(=O)OC7)CC[C@]65O)C4)O[C@@H]3C)O[C@@H]2C)C[C@H](O)[C@@H]1O [DIGITOXIN],AC50,[1],> 30 µM
same,AC50,[2],> 30 µM
same,AC50,[3],> 30 µM
same,AC50,[4],> 30 µM
same,AC50,[5],> 30 µM
same,AC50,[6],> 30 µM
same,AC50,[7],> 30 µM
same,AC50,[8],> 30 µM
same,AC50,[9],> 30 µM
OC(CCCN1CCCCC1)(c1ccccc1)c1ccccc1 [DIPHENIDOL],AC50,[1],> 30 µM
same,AC50,[2],0.944 µM
same,AC50,[3],> 30 µM
same,AC50,[4],16 µM
same,AC50,[5],> 30 µM
same,AC50,[6],6.87 µM
same,AC50,[7],> 30 µM
same,AC50,[8],> 30 µM
same,AC50,[9],> 30 µM
C[C@@H](O)[C@H]1C(=O)N2C(C(=O)O)=C([C@H]3CCCO3)S[C@H]12 [FAROPENEM],AC50,[1],> 30 µM
same,AC50,[2],> 30 µM
same,AC50,[3],> 30 µM
same,AC50,[4],> 30 µM
same,AC50,[5],> 30 µM
same,AC50,[6],> 30 µM
same,AC50,[7],> 30 µM
same,AC50,[8],> 30 µM
same,AC50,[9],> 30 µM
CCOC(=O)c1ccc(OC(=O)CCCCCNC(=N)N)cc1 [GABEXATE],AC50,[1],0.17 µM
same,AC50,[2],1.49 µM
same,AC50,[3],> 30 µM
same,AC50,[4],25 µM
same,AC50,[5],> 30 µM
same,AC50,[6],> 30 µM
same,AC50,[7],> 30 µM
same,AC50,[8],> 30 µM
same,AC50,[9],14.8 µM
CCCCC/C=C\C/C=C\C/C=C\CCCCC(=O)O [GAMOLENIC ACID],AC50,[1],> 30 µM
same,AC50,[2],> 30 µM
same,AC50,[3],> 30 µM
same,AC50,[4],> 30 µM
same,AC50,[5],> 30 µM
same,AC50,[6],> 30 µM
same,AC50,[7],> 30 µM
same,AC50,[8],> 30 µM
same,AC50,[9],> 30 µM
COCCOc1cnc(NS(=O)(=O)c2ccccc2)nc1 [GLYMIDINE],AC50,[1],> 30 µM
same,AC50,[2],> 30 µM
same,AC50,[3],> 30 µM
same,AC50,[4],> 30 µM
same,AC50,[5],> 30 µM
same,AC50,[6],> 30 µM
same,AC50,[7],> 30 µM
same,AC50,[8],> 30 µM
same,AC50,[9],> 30 µM
CCC(=O)O[C@]1(C(=O)COC(C)=O)CC[C@H]2[C@@H]3CCC4=CC(=O)CC[C@]4(C)[C@H]3[C@@H](O)C[C@@]21C [HYDROCORTISONE ACEPONATE],AC50,[1],> 30 µM
same,AC50,[2],> 30 µM
same,AC50,[3],> 30 µM
same,AC50,[4],> 30 µM
same,AC50,[5],> 30 µM
same,AC50,[6],> 30 µM
same,AC50,[7],> 30 µM
same,AC50,[8],0.326 µM
same,AC50,[9],> 30 µM
O=[N+]([O-])O[C@H]1CO[C@H]2[C@@H]1OC[C@H]2O[N+](=O)[O-] [ISOSORBIDE DINITRATE],AC50,[1],> 30 µM
same,AC50,[2],> 30 µM
same,AC50,[3],> 30 µM
same,AC50,[4],> 30 µM
same,AC50,[5],> 30 µM
same,AC50,[6],> 30 µM
same,AC50,[7],> 30 µM
same,AC50,[8],> 30 µM
same,AC50,[9],> 30 µM
NC(=O)NCCC[C@H](N)C(=O)O [L-CITRULLINE],AC50,[1],> 30 µM
same,AC50,[2],> 30 µM
same,AC50,[3],> 30 µM
same,AC50,[4],> 30 µM
same,AC50,[5],> 30 µM
same,AC50,[6],> 30 µM
same,AC50,[7],> 30 µM
same,AC50,[8],> 30 µM
same,AC50,[9],> 30 µM
CC(=O)O[C@H]1C[C@H](O[C@H]2[C@@H](O)C[C@H](O[C@H]3[C@@H](O)C[C@H](O[C@H]4CC[C@@]5(C)[C@H](CC[C@@H]6[C@@H]5C[C@@H](O)[C@]5(C)[C@@H](C7=CC(=O)OC7)CC[C@]65O)C4)O[C@@H]3C)O[C@@H]2C)O[C@H](C)[C@H]1O[C@@H]1O[C@H](CO)[C@@H](O)[C@H](O)[C@H]1O [LANATOSIDE C],AC50,[1],> 30 µM
same,AC50,[2],> 30 µM
same,AC50,[3],> 30 µM
same,AC50,[4],> 30 µM
same,AC50,[5],> 30 µM
same,AC50,[6],> 30 µM
same,AC50,[7],> 30 µM
same,AC50,[8],> 30 µM
same,AC50,[9],> 30 µM
Nc1nc(N)nc(Nc2ccc([As]3SCC(CO)S3)cc2)n1 (stereo not drawn) [MELARSOPROL],AC50,[1],> 30 µM
same,AC50,[2],> 30 µM
same,AC50,[3],> 30 µM
same,AC50,[4],> 10 µM
same,AC50,[5],14.5 µM
same,AC50,[6],> 30 µM
same,AC50,[7],> 30 µM
same,AC50,[8],> 30 µM
same,AC50,[9],29.2 µM
Cc1cc(CCN2CCN(c3cccc(Cl)c3)CC2)n[nH]1 [MEPIPRAZOLE],AC50,[1],> 30 µM
same,AC50,[2],> 30 µM
same,AC50,[3],> 30 µM
same,AC50,[4],2.71 µM
same,AC50,[5],> 30 µM
same,AC50,[6],0.003 µM
same,AC50,[7],> 30 µM
same,AC50,[8],> 30 µM
same,AC50,[9],8.04 µM
CC[N+](C)(CC)CCOC(=O)C1c2ccccc2Oc2ccccc21 [METHANTHELINE],AC50,[1],> 30 µM
same,AC50,[2],0.0126 µM
same,AC50,[3],> 30 µM
same,AC50,[4],11 µM
same,AC50,[5],> 30 µM
same,AC50,[6],> 30 µM
same,AC50,[7],> 30 µM
same,AC50,[8],> 30 µM
same,AC50,[9],> 30 µM
CO[C@H]1[C@@H](O)C[C@H](O[C@H]2[C@@H](O)C[C@H](O[C@H]3[C@@H](O)C[C@H](O[C@H]4CC[C@@]5(C)[C@H](CC[C@@H]6[C@@H]5C[C@@H](O)[C@]5(C)[C@@H](C7=CC(=O)OC7)CC[C@]65O)C4)O[C@@H]3C)O[C@@H]2C)O[C@@H]1C [METILDIGOXIN],AC50,[1],> 30 µM
same,AC50,[2],> 30 µM
same,AC50,[3],> 30 µM
same,AC50,[4],> 30 µM
same,AC50,[5],> 30 µM
same,AC50,[6],> 30 µM
same,AC50,[7],> 30 µM
same,AC50,[8],> 30 µM
same,AC50,[9],> 30 µM
CCOC(=O)[C@H](CCc1ccccc1)N[C@@H](C)C(=O)N1Cc2cc(OC)c(OC)cc2C[C@H]1C(=O)O [MOEXIPRIL],AC50,[1],> 30 µM
same,AC50,[2],> 30 µM
same,AC50,[3],> 30 µM
same,AC50,[4],> 30 µM
same,AC50,[5],> 30 µM
same,AC50,[6],> 30 µM
same,AC50,[7],> 30 µM
same,AC50,[8],> 30 µM
same,AC50,[9],> 30 µM
CCN(CC)CCOC(=O)C(Cc1cccc2ccccc12)CC1CCCO1 (stereo not drawn) [NAFRONYL],AC50,[1],> 30 µM
same,AC50,[2],0.199 µM
same,AC50,[3],> 30 µM
same,AC50,[4],6.9 µM
same,AC50,[5],> 30 µM
same,AC50,[6],> 30 µM
same,AC50,[7],> 30 µM
same,AC50,[8],> 30 µM
same,AC50,[9],> 30 µM
c1ccc2c(CC3=NCCN3)cccc2c1 [NAPHAZOLINE],AC50,[1],> 30 µM
same,AC50,[2],> 30 µM
same,AC50,[3],> 30 µM
same,AC50,[4],> 30 µM
same,AC50,[5],> 30 µM
same,AC50,[6],0.114 µM
same,AC50,[7],> 30 µM
same,AC50,[8],> 30 µM
same,AC50,[9],> 30 µM
